# “And” between values parts separate entries of the source, which are not always exact repeats. Identical values can stand only once. “Also recorded” adds a separate entry of the source.
# Tests used:
# γ-globin mRNA [1] = assay: γ-globin mRNA in cultured primary human erythroid progenitors (BFU-e), real-time PCR; type: cell-based
# γ-globin gene promoter = assay: Dual luciferase reporter assay (μLCRβprRlucAγprFluc cassette) in GM979 cells; type: cell-based; details: Resveratrol at 10 μM, MS-275 at 5 μM; for activity compared with sodium Butyrate: Ambroxol at 1 μM, Desloratadine at 1 μM, Benserazide at 0.03 μM (or a range of 30 nM-5 μM), NSC-95397 at 1 μM, versus sodium Butyrate at 2000 μM; for most active at inducing γ-globin mRNA expression: Benserazide at 0.03 μM
# Excerpt: Cell-based screen for γ-globin inducing compounds in GM979 cells (Skarpidi, et al. Blood 2000; 96:321-326). Mini-gene construct integrated into GM979 cell genome. The readout is Firefly/Renilla luciferase ratio, and is designed to identify only strong inducers of the γ-globin promoter, and specificity for the γ- vs. the […]γ-globin gene. This second assay confirmed 12/15 candidates.
# This assay is […], and consists of a dual-luciferase reporter construct containing the LCR and the […] luciferase and the Aγ-globin promoter linked to firefly luciferase (μLCRβprRlucAγprFluc cassette), stably-transfected into GM979 cells. The orientation of the promoters and μLCR allowed detection only of strong, specific inducers of the γ-globin gene promoter. This assay is also been predictive of in vivo HbF-inducing activity.
# The γ-globin-specificity of hits was determined in a secondary assay employing a stably-transfected dual-luciferase reporter construct containing the LCR and the β-globin promoter linked to renilla luciferase and the Aγ-globin promoter linked to firefly luciferase (μLCRβprRlucAγprFluc cassette) (FIG. 2B).
# γ-globin mRNA [2] = assay: γ-globin mRNA in cultured primary human erythroid progenitors (BFU-e), real-time PCR; type: cell-based; details: for γ-globin mRNA induction: cultured primary human erythroid progenitors, concentrations pharmacologically achievable in humans; for % induction of γ-globin mRNA gene expression: FIG. 4C, HFU-E (burst-forming units-erythroid) cells, Resveratrol 30 μM, desloratadine 50 μM, NSC 50 μM, Benserazine 5 μM; for effect in increasing % of γ-globin mRNA expression: FIG. 6, BFU-e cells, Desloratadine 3 μM, Benserazide 3 μM, NSC5397 0.6 μM
# Protocol: Erythroid progenitors were cultured from cord blood CD34+ cells. […] Each compound was tested in three different cultures. […] On day 14, RNA was extracted from cultured erythroid cells, and relative quantification PCR was performed. Briefly, cDNA was generated from equal amounts of total RNA extracted using The PerfectPure RNA Purification Kit (5 Prime Inc Gaithersburg, Md.). Real-time PCR was performed using an ABI 7500 Real-Time PCR system (Applied Biosystems, Foster City, Calif.). Levels of globin mRNA were calculated by the ΔΔCt method. […] GAPDH levels were used for standardization. Western blotting Nuclear extract of K562 cells and 14-day-old BFU-e were analyzed by electrophoresis using 5-24% gradient SDS-polyacrylamide mini-gels (BIORAD Laboratories. Hercules Calif.). Proteins in the gels were transferred to Immobilon-P membranes. Blots were then incubated with BCL11A polyclonal (Novus Biologicals, Littleton Co) or mouse monoclonal (Santa Cruz Biotechnology, Santa Cruz Calif.) antibodies, after washing blots were incubated with anti-rabbit IgG-horseradish peroxidase secondary antibody (ECL, Little Chalfont Buckinghamshire UK). BCL11A bands were detected on the X-ray film using Western Lightning Reagents (Perking Elmer Inc, Waltham, Mass.).
# γ-globin = assay: Fetal globin (γ-globin mRNA, HbF) induction in phlebotomized anemic baboons; type: in vivo, baboons (Papio hamadryas anubis); details: for fetal globin mRNA: Benserazide 1 or 3 mg/kg in baboon 1509, MS-275 and desloratidine
# Protocol: (§1) Studies to evaluate pharmacokinetic properties and γ-globin induction were performed in juvenile baboons (Papio hamadryas anubis). Briefly, animals were chronically phlebotomized on a daily basis to achieve stable anemia, maintaining a total hemoglobin level of 7.0 to 7.5 g/dl. Candidate compounds were administered intravenously or orally once daily in single doses for pharmacokinetic studies, or once daily in single doses, 4-5 days per week for 4-5 weeks, for pharmacodynamic studies. […] Levels of γ-globin mRNA expression and globin chain synthesis were assessed in baboons before and during treatment with test compounds. A washout period between administrations of different compounds in the same baboon was provided.
# (§2) Chronically catheterized baboons were phlebotomized daily to create chronic anemia with total hemoglobin levels (Hb) between 7.0 to 7.5 g/dl which simulates the expanded erythropoiesis and anemia in sickle cell disease and beta thalassemia. Blood counts were drawn and total Hb (hemoglobin) and reticulocytes were analyzed on a hemavet analyzer. Fetal globin mRNA was analyzed by RT-PCR and proportions for f-cells were analyzed by flow cytometry. […] Desloratidine (0.6 mg/kg) was administered for 4 days following a washout period. Blood counts were obtained at least 3 days/week.
# Baboons HL-25 and HD50 were phlebotomized daily to create anemia with erythroid expansion. When stably anemic, Desloratidine (0.6 mg/kg) was administered orally, fetal hemoglobin (HbF) protein levels were assayed.
# γ-globin mRNA [3] = assay: γ-globin mRNA gene expression in K562 cells; type: cell-based; details: for % induction of γ-globin mRNA gene expression: FIGS. 4A and 4B, Resveratrol 30 μM, desloratadine 50 μM, NSC 50 μM, Benserazine 5 μM
# CB BFU-E cells = assay: CB BFU-E cell proliferation (cells/colony)
# Protocol: Fetal globin-inducing activity in human erythroid progenitors was assessed. Human erythroid progenitors were cultured from peripheral blood samples, exposed to the test compounds at varying concentrations and for varying durations and analyzed for globin chain mRNA ratios. Erythroid progenitors were cultured from cord blood CD34+ cells. Briefly, CD34+ cells in the human cord blood were separated using a Ficoll-paque density gradient. CD34+ cells were cultured in H4230 medium containing 2 mM L-glutamine, 1% Methylcellulose in Iscove's Medium, 30% Fetal Bovine Serum, 1% Bovine Serum Albumin and 10^-4 M β-mercaptoethanol. Methylcellulose H4230 medium was supplemented with EPO (0.5 U/ml) and IL-3 (20 ng/ml) to support BFU-e growth. Cells were cultured in […] mini-dishes and incubated in a humidified atmosphere containing 5% CO2, at 37° C. Different concentrations of the test compounds were added at the time the cultures were established. Each compound was tested in three different cultures. BFU-e colonies grown in mini-dishes were counted on day 14 and harvested for mRNA analysis.
# [4] = test system: red blood cell production; assay: Total hemoglobin and hematocrit in phlebotomized anemic baboons; type: in vivo, baboons (Papio hamadryas anubis); details: for total hemoglobin levels: MS-275 as
# Protocol: as §1, §2
# Baboon 1509 (weight 10.9 kg) was phlebotomized to induce anemia and marrow expansion, similar to the hemoglobin disorders.
# cell viability = details: cited from earlier work; for DNA fragmentation: fragmentation assays
# [5] = test system: system A transport of amino acids; details: cited from earlier work
# [6] = Ambroxol 0.1-1 uM, Cord Blood progenitors
# [7] = Ambroxol 0.1-1 uM, Normal progenitors
# [8] = Benserazide 0.1-0.3 uM, Cord Blood progenitors
# [9] = Benserazide 0.1-0.3 uM, Hemoglobin disorder progenitors
# [10] = Benserazide 0.1-0.3 uM, Normal progenitors
# [11] = Benserazide 1 or 3 mg/kg in baboon 1509
# [12] = MS275 0.5 uM, Cord Blood progenitors
# [13] = MS275 0.5 uM, Normal progenitors
smiles,measurement,setting,value
"Nc1c(Br)cc(Br)cc1CN[C@H]1CC[C@H](O)CC1 [Ambroxol, ambroxol]","fetal globin mRNA, Means",γ-globin mRNA [1]; [6],243 % of control
same,responses (cultures with induced fetal globin mRNA),γ-globin mRNA [1]; [6],3/4
same,"fetal globin mRNA, Means",γ-globin mRNA [1]; [7],224 % of control
same,responses (cultures with induced fetal globin mRNA),γ-globin mRNA [1]; [7],1/1
same,activity compared with sodium Butyrate,γ-globin gene promoter,significantly more active
same,"fetal globin mRNA, single cultures",γ-globin mRNA [2]; [6],302 % of control and 233 % of control and 193 % of control
same,γ-globin mRNA induction,γ-globin mRNA [2],3 fold
"NC(CO)C(=O)NNCc1ccc(O)c(O)c1O (stereo not shown) [Benserazide, 2-amino-3-hydroxy-N′-(2,3,4-trihydroxybenzyl)propanehydrazide]","fetal globin mRNA, Mean",γ-globin mRNA [1]; [8],300 % of control
same,"fetal globin mRNA, Mean",γ-globin mRNA [1]; [9],212 % of control
same,responses (cultures with induced fetal globin mRNA),γ-globin mRNA [1]; [9],4/4
same,"fetal globin mRNA, single subjects","γ-globin mRNA [1]; Benserazide 0.1-0.3 uM, Hemoglobin disorder progenitors (subjects)",178 % of control and 143 % of control and 282 % of control and 128 % of control and 277.3 % of control
same,"fetal globin mRNA, Mean",γ-globin mRNA [1]; [10],151 % of control
same,responses (cultures with induced fetal globin mRNA),γ-globin mRNA [1]; [10],3/4
same,"fetal globin mRNA, single subjects","γ-globin mRNA [1]; Benserazide 0.1-0.3 uM, Normal progenitors (MB, JS, ABM)",115 % of control and 223 % of control and 114 % of control
same,Increase in γ-globin mRNA above baseline,"γ-globin; Baboon 1509, Benserazide oral 2 mg/kg",193%
same,fetal globin mRNA,γ-globin,increased
same,activity compared with sodium Butyrate,γ-globin gene promoter,significantly more active
same,most active at inducing γ-globin mRNA expression,γ-globin gene promoter,most active
same,% induction of γ-globin mRNA gene expression,γ-globin mRNA [3]; K562 cells,most significant % increase
same,responses (cultures with induced fetal globin mRNA),γ-globin mRNA [2]; [8],4/5
same,% induction of γ-globin mRNA gene expression,γ-globin mRNA [2],most significant % increase
same,effect in increasing % of γ-globin mRNA expression,γ-globin mRNA [2],greatest effect
same,γ-globin mRNA induction,γ-globin mRNA [2],up to 5 fold
same,concentrations that induce fetal globin (HbF) mRNA,γ-globin mRNA [2]; primary erythroid progenitors in vitro,0.3 to 5.0 µM
same,number of blood cells per colony,CB BFU-E cells; FIG. 8,increase the number of blood cells per colony
same,hemoglobin level after treatment,"[4]; Baboon 1509, Benserazide 1 mg/kg then 2 mg/kg, by 2 weeks after administration, daily phlebotomy continued, before 7.6 g/dl",8.9 g/dL
same,hematocrit after treatment,"[4]; Baboon 1509, Benserazide 1 mg/kg then 2 mg/kg, by 2 weeks after administration, daily phlebotomy continued, before 25.6%",28%
same,blood cell proliferation,[4]; [11],increased blood cell proliferation
same,total hemoglobin levels,[4]; [11],increased
"CCCC(=O)O [Butyrate, butyrate]",concentration required,"CB BFU-E cells; FIG. 8, comparator for the 3 drug candidates",200 µM
"Nc1ccccc1NC(=O)c1ccc(CNC(=O)OCc2cccnc2)cc1 [MS-275, N-(2-aminophenyl)-4-[N-(pyridin-3-yl-methoxycarbonyl)aminomethyl]benzamide]","fetal globin mRNA, Mean",γ-globin mRNA [1]; [12],345 % of control
same,responses (cultures with induced fetal globin mRNA),γ-globin mRNA [1]; [12],2/2
same,"fetal globin mRNA, Mean",γ-globin mRNA [1]; [13],394 % of control
same,responses (cultures with induced fetal globin mRNA),γ-globin mRNA [1]; [13],5/6
same,"fetal globin mRNA, single subjects","γ-globin mRNA [1]; MS275 0.5 uM, Normal progenitors (MB, MB, JS, ABM, ABM)",680 % of control and 534 % of control and 168 % of control and 463 % of control and 126 % of control
same,Increase in γ-globin mRNA above baseline,"γ-globin; Baboon HD50, MS-275 oral 0.18 mg/kg, 0.18 mg/kg",270%
same,fetal globin mRNA,γ-globin,induced
same,γ-globin mRNA expression in blood compared with positive control ST20 (150 mg/kg),"γ-globin; FIG. 12A, MS-275 3 mg/m^2 for 4 days and 2 weeks, desloratadine 0.6 mg/kg for two days vs ST20 after 2 or 4 days",to the same level
same,activity compared with sodium Butyrate,γ-globin gene promoter,significantly more active
same,most active at inducing γ-globin mRNA expression,γ-globin gene promoter,most active
same,"γ-globin induction, dependence on dose","γ-globin mRNA [3]; FIG. 10B, K562 cells",dose-dependent
same,γ-globin induction compared with arginine butyrate,"γ-globin mRNA [2]; FIG. 13, MS-275 0.5 μM vs arginine butyrate 100 μM, progenitors from human sources with low or high basal HbF",higher activity; also recorded: greater
same,γ-globin mRNA induction,γ-globin mRNA [2],up to 3.7 fold
same,total hemoglobin levels,[4]; [11],increased
same,blood total hemoglobin (Hb) levels compared with positive control ST20 (150 mg/kg),"[4]; FIG. 12B, MS-275 3 mg/m^2 for 4 days and 2 weeks vs ST20 2 and 4 days, desloratadine 0.6 mg/kg for two days",to a greater extent
O=C1C(SCCO)=C(SCCO)C(=O)c2ccccc21 [NSC-95397],activity compared with sodium Butyrate,γ-globin gene promoter,significantly more active
same,concentration giving the most γ-globin mRNA expression,"γ-globin mRNA [3]; FIG. 5, K562 cells, tested Desloratadine 10 μM-100 μM, Resveratrol 5 μM-30 μM, NSC 1 μM-50 μM",50 µM
same,% induction of γ-globin mRNA gene expression,γ-globin mRNA [3]; K562 cells,most significant % increase
same,% induction of γ-globin mRNA gene expression,γ-globin mRNA [2],most significant % increase
same,effect in increasing % of γ-globin mRNA expression,γ-globin mRNA [2],greatest effect
CCCC(=O)OCC [butyric acid ethyl ester],DNA fragmentation,cell viability,reduce DNA fragmentation
CC(C)C(N)=O [isobutyramide],cell viability,cell viability; DNA fragmentation assays,decrease cell viability
O=C(O)COc1ccccc1 [phenoxyacetic acid],system A transport of amino acids,[5],do not significantly alter
same,DNA fragmentation,cell viability,reduce DNA fragmentation
CC(=Cc1ccccc1)C(=O)O [α-methyl cinnamic acid],system A transport of amino acids,[5],do not significantly alter
